Results as given in US20050009886A1, “1,4-Dihydropyridine derivative with a guaiacoxypropanolamine and/or phenoxypropanolamine moiety” (priority 1998, published 2005).

Assays:
[1] = molecular target: T1, β-adrenoreceptor (β1) (Rattus norvegicus, UniProt P18090); assay: Isolated right atrium, L-isoproterenol-induced heart rate increase (pA2); parameters: species or system Wistar rat
T1 construct: The right and left atria were then separated; from tissue; host or cells: isolated rat right atrium (spontaneously beating) and left atrium (electrically paced)
Description: The right and left atria were then separated. The spontaneously-beating right atria was clipped on both end by heart shaped clips, where one end was fixed at the bottom of 10 ml of tissue bath made of physiological saline solution, and temperature maintained at 37° C. The other end of the atria was connected to a force transducer, and isometric contractions and beating rate of the right atria were recorded by COULBOURN AT-High-Speed VideoFigure. After the samples were given 250 mg of contractions and reach equilibrium the following experiments were carried out: • (a) β-adrenoceptor blocking action
Cumulative administration interval was when the previous concentration reached its greatest effect, the next concentration would be immediately given.
The equation is as follows: pA2=−Log KB Log(DRADJ−1)=nlog[B]−LogKB [formula]
[B] Test compound concentration in moles • KB: equilibrium dissociation constant • n: value of slope DR: test EC50 divided by control EC50 • CF: EC50 of second or third control groups divided by EC50 of first control group (c) Effect of Compound on the Increase of Spontaneous Beating in Right Atrium Caused by CaCl2

[2] = molecular target: T2, β2-adrenoceptor (Cavia porcellus, UniProt Q8K4Z4); assay: Direct effect (intrinsic sympathomimetic activity) on reserpine pretreated isolated tracheal; parameters: species or system guinea pig; details: cumulative 10^−10˜3×10^−6 M, reserpine pretreated tracheal
T2 construct: a portion of tracheal approximately 4 cm long was removed; from tissue; host or cells: isolated trachea of reserpine-pretreated guinea pigs
Description: 18˜24 hours before the experiment, 5 mg/kg of reserpine was injected via abdominal cavity to remove all endogenous catecholamines. Prior experiment, guinea pigs were sacrificed, the tracheal was immediately removed and placed in Kreb's solution aerated with air mixture and maintained at room temperature of 22˜25° C. […] Then the tissue was repeatedly washed with Kreb's solution.

T1 sequence (P18090 whole entry): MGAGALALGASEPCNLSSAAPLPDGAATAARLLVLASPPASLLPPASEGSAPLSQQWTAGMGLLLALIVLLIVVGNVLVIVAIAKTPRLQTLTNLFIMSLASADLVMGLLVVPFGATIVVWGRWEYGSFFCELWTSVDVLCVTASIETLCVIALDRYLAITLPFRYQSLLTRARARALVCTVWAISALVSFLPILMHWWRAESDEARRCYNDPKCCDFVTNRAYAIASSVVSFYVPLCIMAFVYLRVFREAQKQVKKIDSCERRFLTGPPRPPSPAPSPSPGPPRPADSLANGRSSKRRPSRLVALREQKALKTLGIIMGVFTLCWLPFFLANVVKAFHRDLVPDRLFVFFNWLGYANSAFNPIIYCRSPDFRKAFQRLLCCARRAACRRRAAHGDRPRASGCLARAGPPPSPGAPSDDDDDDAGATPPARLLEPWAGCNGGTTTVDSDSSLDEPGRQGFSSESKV
T2 sequence (Q8K4Z4 whole entry): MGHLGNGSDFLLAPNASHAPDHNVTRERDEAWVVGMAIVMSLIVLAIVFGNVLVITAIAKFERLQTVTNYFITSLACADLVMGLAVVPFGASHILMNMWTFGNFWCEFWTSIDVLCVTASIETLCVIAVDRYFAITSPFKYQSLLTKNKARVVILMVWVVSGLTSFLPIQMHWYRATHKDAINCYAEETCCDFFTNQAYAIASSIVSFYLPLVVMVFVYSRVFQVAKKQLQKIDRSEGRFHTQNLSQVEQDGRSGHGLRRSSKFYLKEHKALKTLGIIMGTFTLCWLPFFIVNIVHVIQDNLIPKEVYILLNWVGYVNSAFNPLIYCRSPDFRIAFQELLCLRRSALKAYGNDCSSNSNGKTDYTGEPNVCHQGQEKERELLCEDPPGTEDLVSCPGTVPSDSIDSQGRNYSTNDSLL

COc1cc(C=O)ccc1OCC(O)CNC(C)(C)C (stereo not drawn) [Vanidilol, reference compound] was tested, and the “effect on right atrium relative to tracheal (selectivity ratio of β1 type adrenoceptor)” value ([1]; from average pA2 difference between right atrium and tracheal) was 0.98 ×, the “selectivity on the type of β-adrenoceptor” value ([1]; β1:β2) was “non-selective” and the “direct tracheal relaxation effect” value [2] was “dose-dependant tracheal relaxation effect”.
